In patent US20160037775A1, “ACTIVE INGREDIENT COMBINATIONS HAVING INSECTICIDAL AND ACARICIDAL PROPERTIES” (priority 2010, published 2016):
Read-outs that look alike come from different tables or passages of the source.

Columns and labels:
Type in all cases: in vivo
Myzus persicae = assay: whole plant or invertebrate
Source text: (§1) If the actual kill rate is greater than that calculated, the kill rate of the combination is superadditive, which means that a synergistic effect is present. In this case, the kill rate actually observed must be greater than the value calculated from the above formula for the expected kill rate (E).
(§2) • 78 parts by weight of acetone • 1.5 parts by weight of dimethylformamide Emulsifier: 0.5 part by weight of alkylaryl polyglycol ether
(§3) To produce an appropriate active ingredient formulation, 1 part by weight of active ingredient is mixed with the stated amounts of solvent and emulsifier, and the concentrate is diluted with emulsifier-containing water to the desired concentration.
After the desired time, the kill in % is determined. 100% means that all aphids have been killed; 0% means that no aphids have been killed. The kill rates determined are entered into Colby's formula.

Tetranychus urticae = assay: Tetranychus test (OP-resistant/spray treatment)
Source text: (§4) The expected action for a given combination of two active ingredients can be calculated according to S. R. Colby, Weeds 15 (1967), 20-22 as follows:
(§5) • X is the kill rate, expressed in % of the untreated control, in the case of use of active ingredient A in an application rate of m g/ha or in a concentration of m ppm, • Y is the kill rate, expressed in % of the untreated control, in the case of use of active ingredient B in an application rate of n g/ha or in a concentration of n ppm, and • E is the kill rate, expressed in % of the untreated control, in the case of use of active ingredients A and B in application rates of m and n g/ha or in a concentration of m and n ppm, then
as §1, §2, §3
Discs of bean leaves (Phaseolus vulgaris) infested by all stages of the two-spotted spider mite (Tetranychus urticae) are sprayed with an active ingredient formulation of the desired concentration.
After the desired period of time, the effect in % is determined. 100% means that all of the spider mites have been killed; 0% means that none of the spider mites have been killed.

Phaedon cochleariae = assay: whole plant or invertebrate
Source text: as §4, §5, §1, §2, §3
Cabbage leaves (Brassica oleracea) are treated by spraying with the active ingredient formulation of the desired concentration and populated with larvae of the mustard beetle (Phaedon cochleariae) while the leaves are still moist.
After the desired period of time, the kill rate in % is determined. 100% means that all beetle larvae have been killed; 0% means that none of the beetle larvae have been killed. The kill rates determined are entered into Colby's formula.

[1] = Myzus persicae, 24 h, 0.8 g/ha, after 1 d, read-out: Kill rate in % after 1 d
[2] = Tetranychus urticae, 144 h, 20 g/ha, after 6 d, applied individually, read-out: Kill rate in % after 6 d
[3] = Myzus persicae, 144 h, 0.8 g/ha, after 6 d, read-out: Kill rate in % after 6 d
[4] = Phaedon cochleariae, 144 h, 0.16 g/ha, after 6 d, read-out: Kill rate in % after 6 d
[5] = Myzus persicae, 24 h, 20 g/ha, after 1 d, read-out: Kill rate in % after 1 d
[6] = Myzus persicae, 24 h, read-out: Kill rate in % after 1 d
[7] = Myzus persicae, 144 h, after 6 d, read-out: Kill rate in % after 6 d
[8] = Tetranychus urticae, 48 h, 4 g/ha, after 2 d, applied individually, read-out: Kill rate in % after 2 d
[9] = Myzus persicae, 24 h, after 1 d, read-out: Kill rate in % after 1 d
[10] = Myzus persicae, 24 h, 4 g/ha, after 1 d, read-out: Kill rate in % after 1 d
[11] = Myzus persicae, 144 h, read-out: Kill rate in % after 6 d
[12] = Myzus persicae, 24 h, 100 g/ha, after 1 d, read-out: Kill rate in % after 1 d

Compound: N#Cc1ccc(CC(=NNC(=O)Nc2ccc(OC(F)(F)F)cc2)c2cccc(C(F)(F)F)c2)cc1 (mixture of isomers) [metaflumizone]
- Kill rate in % after 1 d (Myzus persicae; 20 g/ha, after 1 d): 0%

Compound: Cc1c(COC(=O)[C@@H]2[C@H](/C=C(\Cl)C(F)(F)F)C2(C)C)cccc1-c1ccccc1 (racemic) [bifenthrin]
- pest or weed control at 0.8 g/ha (Myzus persicae; [1]): 80%
- pest or weed control at 0.16 g/ha (Tetranychus urticae; Tetranychus urticae, 48 h, 0.16 g/ha, after 2 d, applied individually, read-out: Kill rate in % after 2 d): 0%

Compound: Cc1c(F)c(F)c(COC(=O)[C@@H]2[C@H](/C=C(\Cl)C(F)(F)F)C2(C)C)c(F)c1F (racemic) [tefluthrin]
- pest or weed control at 20 g/ha (Tetranychus urticae; [2]): 0%

Compound: Fc1cncc(-c2ncc(-c3cccc(-c4ncccn4)n3)s2)c1 [2-{6-[2-(5-fluoropyridin-3-yl)-1,3-thiazol-5-yl]pyridin-2-yl}pyrimidine]
- pest or weed control at 0.8 g/ha (Myzus persicae; [3]): 70%
- pest or weed control at 0.16 g/ha (Phaedon cochleariae; [4]): 0%

Compound: O=C1C=C(N(Cc2ccc(Cl)nc2)CC(F)F)CO1 [4-{[(6-chloropyrid-3-yl)methyl](2,2-difluoroethyl)amino}furan-2(5H)-one]
- pest or weed control at 20 g/ha (Myzus persicae; [5]): 0%
- pest or weed control at 20 g/ha (Tetranychus urticae; Tetranychus urticae, 48 h, 20 g/ha, after 2 d, applied individually, read-out: Kill rate in % after 2 d): 0%

Compound: Cc1cc(Cl)cc(C)c1C1=C(O)C2(CCC3(CC2)OCCO3)NC1=O [11-(4-chloro-2,6-dimethylphenyl)-12-hydroxy-1,4-dioxa-9-azadispiro[4.2.4.2]tetradec-11-en-10-one]
- pest or weed control at 0.8 g/ha (Myzus persicae; [3]): 0%

Compound: COP(=O)(NC(C)=O)SC (stereo not shown) [acephate]
- pest or weed control at 100 g/ha (Myzus persicae; [6]): 0%
- pest or weed control at 4 g/ha (Phaedon cochleariae; Phaedon cochleariae, 144 h, read-out: Kill rate in % after 6 d): 0%

Compound: C/C(=N\C#N)N(C)Cc1ccc(Cl)nc1 [acetamiprid]
- pest or weed control at 0.16 g/ha (Myzus persicae; [7]): 0%

Compound: CC1(C)[C@H](C(=O)O[C@H](C#N)c2cccc(Oc3ccccc3)c2)[C@@H]1/C=C\C(=O)OC(C(F)(F)F)C(F)(F)F [acrinathrin]
- pest or weed control at 0.8 g/ha (Myzus persicae; [1]): 0%
- pest or weed control at 0.8 g/ha (Tetranychus urticae; Tetranychus urticae, 48 h, after 2 d, applied individually, read-out: Kill rate in % after 2 d): 0%
- pest or weed control at 4 g/ha (Tetranychus urticae; [8]): 20%
- pest or weed control at 0.8 g/ha (Tetranychus urticae; Tetranychus urticae, 144 h, after 6 d, applied individually, read-out: Kill rate in % after 6 d): 40%

Compound: CNC(=O)O/N=C/C(C)(C)SC [aldicarb]
- pest or weed control at 0.8 g/ha (Myzus persicae; [3]): 0%
- Kill rate in % after 2 d (Phaedon cochleariae; 0.8 g/ha, after 2 d): 0%

Compound: CC1(C)C(C=C(Cl)Cl)C1C(=O)OC(C#N)c1cccc(Oc2ccccc2)c1 (stereo not drawn) [alpha-cypermethrin]
- pest or weed control at 0.16 g/ha (Myzus persicae; [9]): 70%
- pest or weed control at 4 g/ha (Tetranychus urticae; [8]): 0%

Compound: CC(C)N1C(=O)N(c2ccccc2)CS/C1=N\C(C)(C)C [buprofezin]
- pest or weed control at 500 g/ha (Myzus persicae; Myzus persicae, 24 h, 500 g/ha, after 1 d, read-out: Kill rate in % after 1 d): 0%

Compound: CCOP(=O)(SC(C)CC)SC(C)CC (stereo not shown) [cadusaphos]
- pest or weed control at 20 g/ha (Myzus persicae; [5]): 0%
- pest or weed control at 20 g/ha (Tetranychus urticae; [2]): 0%

Compound: CNC(=O)Oc1cccc2c1OC(C)(C)C2 [carbofuran]
- pest or weed control at 20 g/ha (Myzus persicae; [5]): 70%

Compound: CCOCn1c(-c2ccc(Cl)cc2)c(C#N)c(Br)c1C(F)(F)F [chlorfenapyr]
- pest or weed control at 0.16 g/ha (Myzus persicae; [7]): 0%
- pest or weed control at 0.8 g/ha (Myzus persicae; [3]): 0%
- pest or weed control at 4 g/ha (Tetranychus urticae; [8]): 10%

Compound: CCOP(=S)(OCC)Oc1nc(Cl)c(Cl)cc1Cl [chlorpyrifos]
- pest or weed control at 4 g/ha (Myzus persicae; [10]): 80%
- pest or weed control at 100 g/ha (Tetranychus urticae; Tetranychus urticae, 144 h, 100 g/ha, after 6 d, applied individually, read-out: Kill rate in % after 6 d): 0%

Compound: CN/C(=N\[N+](=O)[O-])NCc1cnc(Cl)s1 [clothianidin]
- pest or weed control at 20 g/ha (Myzus persicae; [5]): 70%
- pest or weed control at 0.16 g/ha (Myzus persicae; [7]): 0%

Compound: CNC(=O)c1cc(C#N)cc(C)c1NC(=O)c1cc(Br)nn1-c1ncccc1Cl [cyantraniliprole]
- pest or weed control at 0.16 g/ha (Myzus persicae; [7]): 0%
- Kill rate in % after 2 d (Phaedon cochleariae; 0.16 g/ha, after 2 d): 0%
- pest or weed control at 0.16 g/ha (Phaedon cochleariae; [4]): 0%

Compound: CC1(C)C(C=C(Cl)Cl)C1C(=O)OC(C#N)c1cccc(Oc2ccccc2)c1 (stereo not shown) [cypermethrin]
- pest or weed control at 4 g/ha (Myzus persicae; [10]): 80%
- pest or weed control at 0.16 g/ha (Phaedon cochleariae; [4]): 0%

Compound: CC1(C)[C@H](C(=O)O[C@H](C#N)c2cccc(Oc3ccccc3)c2)[C@@H]1C=C(Br)Br [deltamethrin]
- pest or weed control at 0.8 g/ha (Myzus persicae; [1]): 0%

Compound: CC(C)c1cc(Oc2ccccc2)cc(C(C)C)c1NC(=S)NC(C)(C)C [diafenthiuron]
- pest or weed control at 100 g/ha (Myzus persicae; [6]): 0%
- pest or weed control at 20 g/ha (Myzus persicae; [11]): 70%
- pest or weed control at 100 g/ha (Tetranychus urticae; Tetranychus urticae, 48 h, read-out: Kill rate in % after 2 d): 0%
- pest or weed control at 20 g/ha (Tetranychus urticae; Tetranychus urticae, 144 h, read-out: Kill rate in % after 6 d): 10%

Compound: CN/C(=N/CC1CCOC1)N[N+](=O)[O-] (stereo not shown) [dinotefuran]
- Kill rate in % after 2 d (Phaedon cochleariae; in vivo): 0%

Compound: CC[S+]([O-])c1c(C#N)nn(-c2c(Cl)cc(C(F)(F)F)cc2Cl)c1N (stereo not shown) [ethiprole]
- pest or weed control at 4 g/ha (Myzus persicae; [10]): 0%

Compound: CCCSP(=O)(OCC)SCCC [ethoprophos]
- pest or weed control at 4 g/ha (Myzus persicae; [11]): 0%
- pest or weed control at 0.8 g/ha (Phaedon cochleariae; Phaedon cochleariae, 144 h, 0.8 g/ha, after 6 d, read-out: Kill rate in % after 6 d): 0%

Compound: N#Cc1nn(-c2c(Cl)cc(C(F)(F)F)cc2Cl)c(N)c1[S+]([O-])C(F)(F)F (stereo not shown) [fipronil]
- pest or weed control at 0.16 g/ha (Myzus persicae; [7]): 0%
- Kill rate in % after 2 d (Phaedon cochleariae; 0.16 g/ha, after 2 d): 67%

Compound: N#CCNC(=O)c1cnccc1C(F)(F)F [flonicamid]
- Kill rate in % after 1 d (Myzus persicae; 20 g/ha, after 1 d): 0%

Compound: O=[N+]([O-])NC1=NCCN1Cc1ccc(Cl)nc1 [imidacloprid]
- pest or weed control at 0.8 g/ha (Myzus persicae; [1]): 0%

Compound: COP(N)(=O)SC (stereo not shown) [methamidophos]
- pest or weed control at 20 g/ha (Myzus persicae; [5]): 0%
- pest or weed control at 100 g/ha (Myzus persicae; [12]): 80%

Compound: CNC(=O)Oc1cc(C)c(SC)c(C)c1 [methiocarb]
- pest or weed control at 20 g/ha (Myzus persicae; [5]): 0%

Compound: CC1=NNC(=O)N(/N=C/c2cccnc2)C1 [pymetrozine]
- pest or weed control at 100 g/ha (Myzus persicae; [12]): 0%

Compound: Cc1cc(C)c(C2=C(OC(=O)CC(C)(C)C)C3(CCCC3)OC2=O)c(C)c1 [spiromesifen]
- Kill rate in % after 1 d (Myzus persicae; 4 g/ha, after 1 d): 0%
- Kill rate in % after 6 d (Tetranychus urticae; 4 g/ha, after 6 d, applied individually): 70%
- Kill rate in % after 6 d (Tetranychus urticae; 20 g/ha, after 6 d, applied individually): 80%

Compound: CCOC(=O)OC1=C(c2cc(C)ccc2C)C(=O)N[C@]12CC[C@@H](OC)CC2 [spirotetramat]
- pest or weed control at 4 g/ha (Tetranychus urticae; [8]): 0%

Compound: CC(c1ccc(C(F)(F)F)nc1)S(C)(=O)=NC#N (stereo not shown) [sulfoxaflor]
- pest or weed control at 0.16 g/ha (Myzus persicae; [9]): 0%

Compound: N#C/N=C1\SCCN1Cc1ccc(Cl)nc1 [thiacloprid]
- pest or weed control at 20 g/ha (Myzus persicae; [5]): 80%
- pest or weed control at 0.8 g/ha (Myzus persicae; [3]): 80%

Compound: CN1COCN(Cc2cnc(Cl)s2)/C1=N\[N+](=O)[O-] [thiamethoxam]
- pest or weed control at 20 g/ha (Myzus persicae; [5]): 70%

Compound: CS/C(C)=N\OC(=O)N(C)SN(C)C(=O)O/N=C(\C)SC [thiodicarb]
- pest or weed control at 20 g/ha (Myzus persicae; [5]): 0%
- pest or weed control at 100 g/ha (Tetranychus urticae; Tetranychus urticae, 48 h, 100 g/ha, after 2 d, applied individually, read-out: Kill rate in % after 2 d): 0%

Compound: CC1(C)[C@H](C=C(Cl)Cl)[C@H]1C(=O)OCc1c(F)c(F)cc(F)c1F [transfluthrin]
- pest or weed control at 20 g/ha (Myzus persicae; [5]): 70%

Compound: milbemectin
- Kill rate in % after 6 d (Myzus persicae; 0.032 g/ha, after 6 d): 0%
- Kill rate in % after 1 d (Myzus persicae; 0.8 g/ha, after 1 d): 0%
- Kill rate in % after 2 d (Tetranychus urticae; 0.032 g/ha, after 2 d, applied individually): 50%
